“Also recorded” adds a separate entry of the source.
How the values were obtained:
[1] = test system: non-NMDA receptors; test: Inward membrane current elicited by the compound alone in Xenopus oocytes injected with rat hippocampus poly(A)+ RNA (agonist action); assay type: cell-based; conditions: antagonist 1 μM
Method: (§1) 50 nl of the poly(A)^+ RNA (1 μg/μl) isolated was injected into an oocyte by a micromanipulator and the oocytes were cultured in a Barth's medium (88 mM NaCl, 1 mM KCl, 2.4 mM NaHCO3, 0.3 mM Ca(NO3)2, 0.41 mM CaCl2, 0.82 mM MgSO4, 10 μg/ml sodium penicillin, 10 μg/ml streptomycin sulfate, and 15 mM HEPES) at 19° C. for three to four days and used for measurement.
(§2) The above-mentioned oocyte was set in a chamber under perfusion of frog Ringer's solution (120 mM NaCl, 2 mM KCl, 1.8 mM CaCl2, and 5 mM HEPES, pH 7.4) and microelectrodes were inserted into oocytes and the membrane potential was fixed at -70 mV. Subsequently, another frog Ringer's solution in which AMPA (100 μM) or kainate(KA) (100 μM) both of which are agonists for non-NMDA receptors was dissolved was substituted for the original Ringer's solution and then an inward membrane current was measured.

[2] = test system: non-NMDA receptors; test: Potentiation of AMPA- or kainic acid-elicited membrane current in Xenopus oocytes injected with rat hippocampus poly(A)+ RNA (two-electrode voltage clamp)
Method: By use of an improved method of Masu's Xenopus oocyte expression system [Nature 329,836 (1987)] an electrophysiological analysis was conducted.
(1) Preparation of poly(A)^+ RNA isolated from a rat hippocampus.
A hippocampus region was isolated from a rat and homogenized in the presence of […] and total RNA was extracted from the hippocampus by means of the ultracentrifugating method utilizing cesium chloride. Poly(A)^+ RNA was refined from the obtained RNA by use of oligo dT cellulose column.
(2) Expression of protein in Xenopus oocytes
as §1
(3) Electrophysiological and pharmacological experiment by two-electrodes voltage clamp method.
as §2
The membrane potential was fixed at -70 mV. The response was defined as one which was generated on the specimen under perfusion of frog Ringer's solution in which AMPA or kainic acid both of which are agonists for non-NMDA receptors was dissolved until a final concentration of 100 μM. The responses are shown as relative values which were measured on the oocytes under perfusion of frog Ringer's solution in which the compound of the invention and anilacetum which is a potentiator for non-NMDA receptors were dissolved until a concentration of 50 μM with AMPA or kainic acid.

[3] = 50 μM test substance with 100 μM AMPA, membrane potential -70 mV, control (AMPA alone) = 1
[4] = 50 μM test substance with 100 μM kainic acid, membrane potential -70 mV, control (kainic acid alone) = 1

Compound	Potentiation (relative values with a control as 1), AMPA ([2]; xenopus oocytes, 50 µM)	Potentiation (relative values with a control as 1), kainic acid ([2]; xenopus oocytes, 50 µM)	further results
N#Cc1cc2[nH]c(=O)c(=O)[nH]c2cc1[N+](=O)[O-] [CNQX, reference compound]			Inhibition of inward membrane current elicited by the compound of the invention alone [1]: inhibited; Inhibition of inward membrane current elicited by AMPA (100 μM) or kainate (100 μM) ([2]; antagonist 1 μM, -70 mV): inhibited
O=C(O)COc1c(F)cc(SCCNS(=O)(=O)c2ccc(Cl)cc2)cc1F [Compound 68, 2,6-Difluoro-4-[2-(4-chlorophenylsulfonylamino)ethylthio]phenoxyacetic acid]	1.5	1.6	
O=C(O)COc1ccc(SCCNS(=O)(=O)c2ccc(Br)cc2)cc1F [Compound 106, 2-Fluoro-4-[2-(4-bromophenylsulfonylamino)ethylthio]phenoxyacetic acid]	1.4	1.5	
COC(=O)COc1c(F)cc(SCCNS(=O)(=O)c2ccc(Cl)cc2)cc1F [Compound 128, methyl 4-[2-(4-chlorophenylsulfonylamino)ethylthio]-2,6-difluorophenoxyacetate]	1.5	1.6	
NC(=O)COc1c(F)cc(SCCNS(=O)(=O)c2ccccc2)cc1F [Compound 139, 4-[2-(Phenylsulfonylamino)ethylthio]-2,6-difluorophenoxyacetamide]			Potentiation of the non-NMDA receptor response (membrane current elicited by kainic acid and AMPA), in words ([2]; 50 μM compound with 100 μM AMPA or kainic acid): definitely active; also recorded: especially strong action; Potentiation (relative values with a control as 1), AMPA [2, 3]: 23.2; Potentiation (relative values with a control as 1), kainic acid [2, 4]: 2.8
NC(=O)COc1ccc(SCCNS(=O)(=O)c2ccccc2)cc1F [Compound 142, 4-[2-(Phenylsulfonylamino)ethylthio]-2-fluorophenoxyacetamide]	1.6	1.5	
CN(C)C(=O)COc1ccc(SCCNS(=O)(=O)c2ccccc2)cc1F [Compound 143, N,N-Dimethyl-4-[2-(phenylsulfonylamino)ethylthio]-2-fluorophenoxyacetamide]	1.4	1.6	
NC(=O)Cc1ccc(SCCNS(=O)(=O)c2ccccc2)cc1 [Compound 145, 4-[2-(phenylsulfonylamino)ethylthio]phenylacetamide]	1.3	1.5	
C[C@]12N[C@H](Cc3ccccc31)c1ccccc12 [MK-801]			Inhibition of inward membrane current elicited by the compound of the invention alone [1]: not inhibited
COc1ccc(C(=O)N2CCCC2=O)cc1 [anilacetum, reference compound]			Potentiation (relative values with a control as 1), AMPA [2, 3]: does not potentiate; Potentiation (relative values with a control as 1), AMPA ([2]; 50 μM test substance with 100 μM AMPA, membrane potential -70 mV, control (AMPA alone) = 1, 50 µM): 1; Potentiation (relative values with a control as 1), kainic acid [2, 4]: does not potentiate; Potentiation (relative values with a control as 1), kainic acid ([2]; 50 μM test substance with 100 μM kainic acid, membrane potential -70 mV, control (kainic acid alone) = 1, 50 µM): 1; Effect on response elicited by AMPA ([2]; 1 mM test substance): doubles; Effect on response elicited by kainic acid ([2]; 1 mM test substance (20 times in concentration)): does not affect

Source: patent US5955505A, “Glutamic acid receptor agonist” (Nippon Suisan Kaisha, Ltd., priority 1995, dated 1999)
